Laboratory results taken from patent US10364263B2, “Cyclic phosphates and cyclic phosphoramidates for the treatment of neurologic disorders” (Retrophin, Inc., priority 2015, dated 2019).
Like-named read-outs stand apart in the source and are kept apart here.

How the values were obtained:
[1] = Permeability in porcine brain endothelial cell blood-brain barrier model; type: in vitro ADME; details: pig (endothelial cells), co-cultured with rat astrocytes, pH 7.4, PBECs/As blood-brain barrier model, luminal to basal
Excerpt: Compounds disclosed herein show the potential to reach mammalian brain by crossing the blood-brain barrier (BBB) from systemic circulation. […] The porcine brain endothelial cell permeability assay is an in vitro BBB model to be used for the prediction of central nervous system (CNS) drug permeability in vivo and for ranking or prioritization of compounds according to their permeability. This system can also be used for mechanistic studies and drug delivery strategies via receptor-mediated transport (transcytosis). The system is a two-dimensional co-culture, non-contact model of two types of primary cells: primary brain endothelial cells obtained from fresh porcine brains, and primary rat astrocytes, obtained from neonatal rats. This ensures barrier formation and functional expression of key transporters.
The endothelial cells were cultured on rat-tail collagen type I and human fibronectin coated Transwell polycarbonate inserts (surface area 0.7 cm^2; pore size 0.4 μm) and the inserts were placed in 24-well plates containing confluent rat astrocytes. This system allows for the formation of a differentiated BBB model suitable for compound permeability in 10 days.
On the day of the experiment, culture medium was removed and cells were pre-incubated for 30 min with HBSS containing 20 mM Hepes pH 7.4 and 0.1% BSA. Donor volume (apical) was 400 μl and receiver volume (basal) 900 μl. Compounds were diluted in assay medium (at the desired concentration) and added to the luminal side (to mimic blood to brain passage). Transport was measured usually after 60 min by detecting the amount of compound from the basal (brain side). The integrity of the cell layers was assessed by measuring the transendothelial electrical resistance (TEER) and by monitoring FITC-dextran (40 KDa) permeation. Inserts with TEER values […] were selected for permeability studies. As FITC-dextran cannot freely permeate lipophilic barriers, a high degree of FITC-dextran transport indicates poor integrity of the cell layer and wells with high FITC-dextran permeability were excluded. FITC-dextran was included as internal control in each insert used for permeability studies. Fluorescence was measured using a fluorimetric detector. Radioactivity was measured by scintillation counting. For LC-MS/MS analysis, aliquots (200 μl) from the basal compartment were diluted with an equal volume of 100% acetonitrile containing 0.1% formic acid, centrifuged to remove cell debris, and evaporated under N2. After reconstitution, samples were analyzed by LC-MS/MS. Mass balance was determined considering the amount of compound recovered in the donor and receiver chamber at the end of the assay relative to the amount added to the donor chamber at time 0.
Permeability was defined as the apparent permeability coefficient (Papp), which is a measure of the appearance rate of the compound in the receiver chamber, expressed in cm/s. Papp is calculated according the following equation: Papp[cm/sec]=Vd*ΔMr/A*Md*Δt, Equation 2: where
Vd=volume in the donor compartment in cm^3 or mL;
ΔMr=total amount of compound in the receiver compartment after t seconds;
Md=donor amount (added at time 0)
Δt=time measured in seconds
A=filter area in cm^2 (for 24 well plate, A=0.7 cm^2).
To correct for the contribution of filter and substrate, Papp was also determined for the cell-free system. Permeability of the endothelial cell layer was determined using the following equation: […], Equation 3: where
Ptotal=the P of the total system,
Pf=P for the cell-free filter, and
Pe=P for the endothelial cell layer alone. In this equation, the total resistance of the system towards passage of a substance is additively composed of two […] resistances: that of the cell monolayer and that of the filter.

[2] = Stability in mouse plasma; type: in vitro ADME; details: mouse, plasma; for t1/2, Mouse Plasma, Diastereoisomer B: 3 µM
Procedure, shortened: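 Test compound at 3 μM (0.1% DMSO) was incubated in mouse or human plasma at 37 °C and sampled in duplicate at 0, 10, 20, 30, 40 and 60 min. Reactions were stopped with acetonitrile/formic acid containing internal standard. Remaining parent was measured by UPLC-MS/MS without a calibration curve.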

[3] = Diastereoisomer A, read-out: Papp Diastereoisomer A
[4] = Diastereoisomer B, read-out: Papp Diastereoisomer B

| Compound | Papp A→B at 60 min [1, 3] [×10⁻⁶ cm/s] | half-life at 3 µM [2] [min] | Papp A→B at 60 min [1, 4] [×10⁻⁶ cm/s] | t1/2, Mouse Plasma, Diastereoisomer B [2] [min] |
| --- | --- | --- | --- | --- |
| CC(C)(C)C(=O)OCO[P@@]1(=O)OCC(C)(C)[C@H](C(=O)NCCC(=O)O)O1 [Compound No. 91, 3-((2S,4R)-5,5-dimethyl-2-oxido-2-((pivaloyloxy)methoxy)-1,3,2-dioxaphosphinane-4-carboxamido)propanoic acid] | 0.45 | 30.6 | – | – |
| CCc1cc(C(=O)OCOP2(=O)OCC(C)(C)[C@H](C(=O)NCCC(=O)OC)O2)n(C)n1 (stereo partly drawn) [Compound No. 84, (((4R)-4-((3-methoxy-3-oxopropyl)carbamoyl)-5,5-dimethyl-2-oxido-1,3,2-dioxaphosphinan-2-yl)oxy)methyl 3-ethyl-1-methyl-1H-pyrazole-5-carboxylate] | 10.1 | < 9.6 | 14.5 | <9.6 |
| COC(=O)CCNC(=O)[C@@H]1OP(=O)(N[C@@H](C)C(=O)OCc2cccnc2)OCC1(C)C (stereo partly drawn) [compound 24, methyl 3-((4R)-5,5-dimethyl-2-oxido-2-(((S)-1-oxo-1-(pyridin-3-ylmethoxy)propan-2-yl)amino)-1,3,2-dioxaphosphinane-4-carboxamido)propanoate] | 0.54 | < 9.6 | 0.6 | <9.6 |
| COC(=O)CCNC(=O)[C@@H]1OP(=O)(N[C@@H](C)C(=O)OCCc2ccccc2)OCC1(C)C (stereo partly drawn) [Compound No. 2, Methyl 3-((4R)-5,5-dimethyl-2-oxido-2-(((S)-1-oxo-1-phenethoxypropan-2-yl)amino)-1,3,2-dioxaphosphinane-4-carboxamido)propanoate] | 3.35 | < 9.6 | 2.61 | <9.6 |
| COC(=O)CCNC(=O)[C@@H]1OP(=O)(N[C@@H](Cc2ccccc2)C(=O)OCc2ccccc2)OCC1(C)C (stereo partly drawn) [compound 10, benzyl ((4R)-4-((3-methoxy-3-oxopropyl)carbamoyl)-5,5-dimethyl-2-oxido-1,3,2-dioxaphosphinan-2-yl)-L-phenylalaninate] | 10.1 | – | 14 | – |
| COC(=O)CCNC(=O)[C@@H]1OP(=O)(OCOC(=O)OC(C)C)OCC1(C)C (stereo partly drawn) [Compound No. 69, Methyl 3-((4R)-2-(((isopropoxycarbonyl)oxy)methoxy)-5,5-dimethyl-2-oxido-1,3,2-dioxaphosphinane-4-carboxamido)propanoate] | 22.8 | < 9.6 | 29.9 | <9.6 |
| COC(=O)CCNC(=O)[C@@H]1OP(=O)(OCCSC(=O)C(C)(C)C)OCC1(C)C (stereo partly drawn) [Compound No. 2-133, Methyl 3-((4R)-5,5-dimethyl-2-oxido-2-(2-(pivaloylthio)ethoxy)-1,3,2-dioxaphosphinane-4-carboxamido)propanoate] | 21.1 | – | 21 | – |
| COC(=O)CCNC(=O)[C@@H]1OP(=O)(NCCC(=O)OCc2ccccc2)OCC1(C)C (stereo partly drawn) [compound 117, benzyl 3-(((4R)-4-((3-methoxy-3-oxopropyl)carbamoyl)-5,5-dimethyl-2-oxido-1,3,2-dioxaphosphinan-2-yl)amino)propanoate] | 1.95 | < 9.6 | 2.9 | <9.6 |
| COC(=O)CCNC(=O)[C@@H]1OP(=O)(OCOC(=O)c2cncs2)OCC1(C)C (stereo partly drawn) [Compound No. 70, (((4R)-4-((3-methoxy-3-oxopropyl)carbamoyl)-5,5-dimethyl-2-oxido-1,3,2-dioxaphosphinan-2-yl)oxy)methyl thiazole-5-carboxylate] | 1.58 | < 9.6 | 2.56 | <9.6 |
